From patent US6827926B2, “Metallotetrapyrrolic photosensitizing agents for use in photodynamic therapy” (Miravant Pharmaceuticals, Inc., priority 2001, dated 2004)
Like-named read-outs stand apart in the source and are kept apart here.

How the values were obtained:
[1] = test system: V79 (Chinese Hamster Lung Fibroblasts) cells; experiment: In vitro cytotoxicity assay (light EC50, Alamar blue); type: cell-based
Summary of the method: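 V79 cells in phenol-free 5% FBS/DMEM exposed 24 h to photosensitizer at final 0.01–5.0 μM, six replicates, then washed and light-treated, with a dark plate as control. Survival by Alamar blue after 24 h dark incubation, read at 570/600 nm.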

[2] = test system: normal skin of CD Hairless male rats; type: in vivo, rat
Summary of the method: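 Liposomal egg yolk phospholipid photosensitizer given as single i.v. tail-vein bolus at 1, 1.5 and 2 μmol/kg; skin spots irradiated with 532 nm laser (150 mW/cm^2, 150J, 1 cm) at 1, 6, 24, 48, 96 hrs post injection. Value is time of last observed skin response spot.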

[3] = test system: normal uninjured rat carotid arteries (medial and adventitial cell populations); experiment: In vivo rat carotid artery acellularity after PDT; design: species or system Sprague Dawley rats; conditions: for Max % rat Artery Accelularity: Table 3; for Max % Rat Artery Accelularity: Table 4, 575 nm (Pt 532 nm); for accelularity in rat artery at a four hour treatment point: 4 hrs post administration
Summary of the method: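 Metallated photosensitizers light-activated in normal uninjured rat left common carotid via balloon catheter introduced through femoral arteriotomy under isoflurane; excitation 575 nm (Ga, Zn, Al, Sn) or 532 nm (Pt). Arteries harvested 3 days post-treatment, H&E-stained; medial and adventitial cell density assessed by light microscopy.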

[4] = Table 3 porphyrins, 24 h drug incubation, 532 nm, 1.25 J/cm^2, read-out: In Vitro EC50 Light
[5] = drug dose 1 μMol, 50 J/cm^2, 3 days post treatment
[6] = Table 4 azaporphyrins, 575 nm (Pt azaporphyrins 532 nm), 1.25 J/cm^2, read-out: In Vitro EC(50)

Normal skin Response (1 μmol) ([2]; rat, in vivo) | SMILES | EC50 [1, 4] | Max % rat Artery Accelularity [3, 5] | EC50 [1, 6] | Max % Rat Artery Accelularity ([3]; drug dose 1 μMol) | also measured
24 h | CCOC(=O)CCCCC1=C(C)C2=Cc3c(CC)c(C)c4[n]3[Zn-2]35[n]6c(c(C)c(CCCCC(=O)OCC)c6=CC1=[N+]23)=CC1=[N+]5C(=C4)C(CC)=C1C (stereo not shown) [Example 55, Zinc 8,13-diethyl-3,7,12,17-tetramethylporphyrin-2,18-di(pentanoic acid ethyl ester)] | 4000 nM | 0% | – | – | –
24 h | CCCOC(=O)CCCCC1=C(C)C2=Cc3c(CC)c(C)c4[n]3[Ga-2]35([Cl])[n]6c(c(C)c(CCCCC(=O)OCCC)c6=CC1=[N+]23)=CC1=[N+]5C(=C4)C(CC)=C1C [Example 56, Gallium Chloride 8,13-diethyl-3,7,12,17-tetramethylporphyrin-2,18-di(pentanoic acid propyl ester)] | 400 nM | 75% | – | – | –
6 h | CCC1=C(C)c2cc3[n-]c(cc4nc(cc5[n-]c(cc1n2)c(C)c5CC)C(C)=C4CCCCC(=O)OC)c(CCCCC(=O)OC)c3C.[Cl-].[Ga+3] [Example 57, Gallium Chloride 8,13-diethyl-3,7,12,17-tetramethylporphyrin-2,18-di(pentanoic acid methyl ester)] | 460 nM | 80% | – | – | factor of decrease of normal skin response / skin clearance time versus the parent methyl ester ([2]; rat, in vivo): 8; acellularity (rat artery) ([3]; text b234, 1 μmol/Kg (printed 1 mol/Kg for 57)): 80%
24 h | CCC1=C(C)C2=[N+]3C1=Cc1c(C)c(CC)c4[n]1[Sn-2]31([Cl])([Cl])[n]3c(c(C)c(CCC(=O)NC)c3=CC3=[N+]1C(=C4)C(C)=C3CCC(=O)NC)=C2 [Example 58, Tin(IV)dichloride Mesoporphyrin N-methylamide] | 1200 nM | 10% | – | – | –
48 h | CCC1=C(C)C2=[N+]3C1=Cc1c(C)c(CC)c4[n]1[In-2]31([Cl])[n]3c(c(C)c(CCC(=O)NC)c3=CC3=[N+]1C(=C4)C(C)=C3CCC(=O)NC)=C2 [Example 59, Indium Chloride Mesoporphyrin N-methylamide] | 170 nM | 60% | – | – | –
96 h | CCC1=C(C)C2=[N+]3C1=Cc1c(C)c(CC)c4[n]1[Pt-2]31[n]3c(c(C)c(CCC(=O)NC)c3=CC3=[N+]1C(=C4)C(C)=C3CCC(=O)NC)=C2 (stereo not shown) [Example 60, Platinum Mesoporphyrin N-methylamide] | 120 nM | 25% | – | – | –
24 h | CCC1=C(C)C2=[N+]3C1=Cc1c(C)c(CC)c4[n]1[Zn-2]31[n]3c(c(C)c(CCC(=O)N(CC)CC)c3=CC3=[N+]1C(=C4)C(C)=C3CCC(=O)N(CC)CC)=C2 (stereo not shown) [Example 62, Zinc Mesoporphyrin N,N-diethylamide] | 4000 nM | 0% | – | – | –
96 h | CCC1=C(C)c2cc3[n-]c(cc4nc(cc5[n-]c(cc1n2)c(C)c5CC)C(C)=C4CCCO)c(CCCO)c3C.[Cl-].[In+3] [Example 72, Indium Chloride 8,13-diethyl-3,7,12,17-tetramethylporphyrin-2,18-di(3′-hydroxypropyl)] | 40 nM | – | – | – | Max % rat Artery Accelularity ([3]; drug dose 0.5 μMol): 40%
24 h | CCC1=C(C)c2cc3[n-]c(cc4nc(cc5[n-]c(cc1n2)c(C)c5CC)C(C)=C4CCCO)c(CCCO)c3C.[Pt+2] [Example 74, Platinum 8,13-diethyl-3,7,12,17-tetramethylporphryin-2,18-di(3′-hydroxypropyl)] | 100 nM | 25% | – | – | –
96 h | CCC1=C(C)c2cc3[n-]c(cc4nc(cc5[n-]c(cc1n2)c(C)c5CC)C(C)=C4CCCOC)c(CCCOC)c3C.[Cl-].[In+3] [Example 75, Indium Chloride 8,13-diethyl-3,7,12,17-tetramethylporphyrin-2,18-di(3′-methoxypropyl)] | 60 nM | 75% | – | – | –
– | CCC1=C(C)c2cc3[n-]c(cc4nc(cc5[n-]c(cc1n2)c(C)c5CC)C(C)=C4CCCN1CCCC1)c(CCCN1CCCC1)c3C.[Pt+2] [Example 77, Platinum 8,13-diethyl-3,7,12,17-tetramethylporphyrin-2,18-di(3-(N-pyrrolidino)propyl)] | 100 nM | 25% | – | – | Normal skin Response (1 μmol) ([2]; Table 3, time of last skin spot observed post injection, 1 μmol, 532 nm laser): 96 h
6 h | CCC1=C(C)C2=[N+]3C1=Cc1c(C)c(CC)c4[n]1[Ga-2]31([OH])[n]3c(c(C)c(CCCNCCCO)c3=CC3=[N+]1C(=C4)C(C)=C3CCCNCCCO)=C2 [Example 78, Gallium Hydroxy 8,13-diethyl-3,7,12,17 tetramethylporphyrin-2,18-di((N-3′-hydoxypropyl)-3-aminopronpyl)] | 1000 nM | – | – | – | Max % rat Artery Accelularity ([3]; drug dose 2 μMol): 10%
96 h | CCC1=C(CC)C2=[N+]3C1=Nc1c(CC)c(CC)c4[n]1[Sn-2]31([Cl])([Cl])[n]3c(c(C)c(CCC(=O)OC)c3=CC3=[N+]1C(=C4)C(C)=C3CCC(=O)OC)=C2 [Example 82, Tin(IV)dichloride 7,8,12,13-tetraethyl-12,17-dimethyl-10-azaporphyrin-2,18-di(propionic acid methyl ester)] | – | – | 400 nM | 30% | –
48 h | CCC1=C(CC)C2=[N+]3C1=Nc1c(CC)c(CC)c4[n]1[In-2]31([Cl])[n]3c(c(C)c(CCC(=O)OC)c3=CC3=[N+]1C(=C4)C(C)=C3CCC(=O)OC)=C2 [Example 83, Indium Chloride 7,8,12,13-tetraethyl-12,17-dimethyl-10-azaporphyrin-2,18-di(propionic acid methyl ester)] | – | – | 30 nM | 50% | –
24 h | CCC1=C(CC)C2=[N+]3C1=Nc1c(CC)c(CC)c4[n]1[Ga-2]31([Cl])[n]3c(c(C)c(CCC(=O)O)c3=CC3=[N+]1C(=C4)C(C)=C3CCC(=O)O)=C2 [Example 87, Gallium Chloride 7,8,12,13-tetraethyl-12,17-dimethyl-10-azaporphyrin-2,18-di(propionic acid)] | – | – | 310 nM | 30% | accelularity in rat artery at a four hour treatment point [3]: 30%
24 h | CCOC(=O)CCC1=C(C)C2=Cc3c(CC)c(CC)c4[n]3[Ga-2]35([Cl])[n]6c(c(C)c(CCC(=O)OCC)c6=CC1=[N+]23)=CC1=[N+]5C(=N4)C(CC)=C1CC [Example 89, Gallium Chloride 7,8,12,13-tetraethyl-12,17-dimethyl-10-azaporphyrin-2,18-di(propionic acid ethyl ester)] | – | – | 400 nM | 60% | –
96 h | CCC1=C(CC)C2=Nc3c(CC)c(CC)c4[n]3[Sn]([Cl])([Cl])[n]3c(c(C)c(CCC(=O)NC)c3=CC3=NC(=C4)C(C)=C3CCC(=O)NC)=CC1=N2 [Example 90, Tin (IV) Dichloride 7,8,12,13-tetraethyl-12,17-dimethyl-10-azaporphyrin-2,18-di(propionic acid methyl amide)] | – | – | 500 nM | 30% | –
48 h | CCC1=C(CC)C2=Nc3c(CC)c(CC)c4[n]3[In]([Cl])[n]3c(c(C)c(CCC(=O)NC)c3=CC3=NC(=C4)C(C)=C3CCC(=O)NC)=CC1=N2 [Example 91, Indium Chloride 7,8,12,13-tetraethyl-12,17-dimethyl-10-azaporphyrin-2,18-di(propionic acid methyl amide)] | – | – | 70 nM | 50% | –
– | CCC1=C(CC)C2=Nc3c(CC)c(CC)c4[n]3[Ga]([Cl])[n]3c(c(C)c(CCCC(=O)OC)c3=CC3=NC(=C4)C(C)=C3CCCC(=O)OC)=CC1=N2 [Example 108, Gallium Chloride 7,8,12,13-tetraethyl-12,17-dimethyl-10-azaporphyrin-2,18-di(butanoic acid methyl ester)] | – | – | 400 nM | 55% | Normal skin Response (1 μmol) ([2]; Table 4, time of last skin spot observed post injection, 1 μmol): 24 h
– | CCC1=C(C)c2cc3[n-]c(cc4nc(cc5[n-]c(cc1n2)c(C)c5CC)C(C)=C4CCC(=O)[O-])c(CCC(=O)[O-])c3C.[Ga+3].[Na+].[Na+].[OH-] [Example 109, Gallium Hydroxy Mesoporphyrin Disodium Salt] | 2400 nM | – | – | – | Normal skin Response (1 μmol) in hrs ([2]; rat, in vivo): none; normal skin response at the drug doses used ([2]; rat, in vivo): no observed normal skin response; acellularity following PDT of rat arteries at longer treatment times post injection ([3]; 16, 24 hrs post injection): significant acellularity; accelularity in rat artery at a four hour treatment point [3]: 10%; Max % rat Artery Accelularity ([3]; drug dose 1 μMol, 4 hrs): 10/4 hrs. %; Max % rat Artery Accelularity ([3]; drug dose 1 μMol, 24 hrs): 100/24 hrs %
24 h | CCC1=C(C)c2cc3[n-]c(cc4nc(cc5[n-]c(cc1n2)c(C)c5CC)C(C)=C4CCCCC(=O)[O-])c(CCCCC(=O)[O-])c3C.[Ga+3].[Na+].[Na+].[OH-] [Example 114, Gallium Hydroxy 8,13-diethyl-3,7,12,17-tetramethylporphyrin-2,18-di(pentanoic acid sodium salt)] | 2300 nM | 20% | – | – | –
